This passage reports IC50 and Activity results from ChEMBL document CHEMBL1159250, “A novel phorbol ester from Excoecaria agallocha” (J Nat Prod, 1995).

As a reminder, the pIC50 is −log10 of the IC50, conventionally taken in molar units. As a reminder, the IC50 is the concentration that inhibits the measured activity by half. A lower IC50 goes with greater potency.

Series [1] deals with Human immunodeficiency virus 1. Nature of the series: Inhibition of HIV1 replication in human H9 cells assessed as inhibition of supernatant reverse transcriptase and p24 level. The settings on record: Human immunodeficiency virus 1, H9. It is filed as functional, organism-based.
The next series concerns H9. Nature of the series: Cytotoxicity in human H9 cells upto 2 uM. It is filed as cell-based.
A further series concerns the target Protein kinase C (PKC). Nature of the series: Displacement of [3H]PDBu from rat brain membrane PKC. It is filed as tissue-based. For orientation: Loss of bound radioactivity is the signal in a displacement assay; it reports binding, not function.

pIC50: −log10 of the molar value.

As for `CCCC/C=C/C=C/CC(=O)O[C@@]12C[C@H](C)[C@@]3(O)[C@@H](C=C(CO)C[C@]4(O)C(=O)C(C)=C[C@@H]34)[C@@H]1C2(C)C`, the pIC50 in series [1] was 8.22. In addition, the Activity entry in the series with H9 was “Non-toxic”. For the same compound, the half-maximal inhibitory concentration (IC50) at Protein kinase C (PKC) is reported as 17 nM.
